Consider 1 compound from patent US9029639B2, “Pyridazine compounds for controlling invertebrate pests” (BASF SE, priority 2009, dated 2015).

In this assay the test system is Cowpea aphid (Aphis craccivora). Description: Activity against cowpea aphid (Aphis craccivora), spray on potted cowpea plants. The format is in vivo. The settings on record: population reduction assessed after 24, 72 and 120 hours, read-out: mortality in comparison with untreated controls. On the procedure: II.3 Activity Against Cowpea Aphid (Aphis craccivora)
The active compounds were formulated in 50:50 (vol:vol) acetone:water. The test solution was prepared at the day of use.
Potted cowpea plants colonized with 100-150 aphids of various stages were sprayed after the pest population had been recorded. Population reduction was assesed after 24, 72, and 120 hours.

A value given as a limit tells only on which side of the number the result lay.

Regarding `Cc1nc(C(=O)N(C)c2ccnnc2)cs1` [Compound 5, 2-Methyl-thiazole-4-carboxylic acid methyl-pyridazin-4-yl-amide], the mortality at 300 ppm was no less than 90%.
